According to patent US6685617B1, “Inhibitors of α4β1 mediated cell adhesion” (Pharmacia & Upjohn Company, priority 1998, dated 2004):

Columns and labels:
[1] = molecular target: T1, α4β1 integrin (Jurkat T-cell adhesion to IL-1 stimulated endothelial cell monolayers) (Homo sapiens, UniProt P05556+P13612); assay: Jurkat-endothelial cell adhesion assay (Jurkat EC); type: cell-based; settings: Jurkat cells on IL-1 stimulated human umbilical vein endothelial cells; read-out: JK/EC (Jurkat EC Assay IC50 value range)
T1 construct: a T-cell line, Jurkat, known to express the α4β1 integrin; host or cells: Jurkat T-cell line
In short: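 Adhesion was expressed as percent of compound-free fluorescence after 20 min at 37° C (following 5 min settling on ice) of BCECF-loaded Jurkat T cells on washed HUVEC monolayers. The endothelium, passage 6 or lower, had received 0.1 ng/ml recombinant IL-1 for 4 hr at 37° C; compound was premixed with the T cells, typically at 100, 20, 5 and 1.25 μM.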

[2] = molecular target: T2, α4β1 integrin (Jurkat cell adhesion to immobilized CS-1 derived peptide CLHPGEILDVPST) (Homo sapiens, UniProt P05556+P13612); assay: Jurkat-CS-1 assay; type: cell-based; settings: Jurkat cells on CS-1 peptide coated plates; read-out: JK/CS-1 (Jurkat CS-1 Assay IC50 value range)
T2 construct: 100 μl of Jurkat cells (2.5×10^6 cells/ml) in DMEM plus BSA; host or cells: Jurkat T-cell line
In short: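 CS-1 peptide was SPDP-crosslinked onto HSA-coated plates and blocked with BSA. Jurkat cells (2.5×10^6 cells/ml) in DMEM/BSA were mixed with compound, generally at 100, 20, 5 and 1.25 μM, and allowed to adhere for 1 hr at 37° C. Bound cells were fixed, stained with toluidine blue and quantified by OD590.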

[3] = tested on: VLA-4 integrin-dependent eosinophil infiltration; assay: Dextran pleurisy model (intrapleural dextran, pleural leukocyte infiltration); type: in vivo, C57BL/6 mice; settings: dose 50 × 2 iv; mouse, 4 h after intrapleural dextran
Protocol: Animals, Housing and Viral Testing:
C57BL/6 mice (Jackson, Bar Harbor, Me.), 6-8 weeks old, weighing 20-25 g were used throughout. All mice were acclimated for at least 7-14 days after arrival and maintained under controlled temperature (20-22° C.) and a 12 hr daily light cycle (6.00 A.M.-6.00 P.M.). Mice were housed in laminar flow racks and checked biweekly for viral infections (mouse hepatitis virus, minute virus of mice, rodent orphan parvovirus, Sendai) with kits obtained from Oreganon Teknika (Durham, N.C.) using established enzyme-linked immunoabsorbent assays. Mice testing positive for any of the above were omitted from the study. […]
Quantitation of Pleural Inflammatory Leukocyte Responses: […]
The pleural cavities of mice receiving either no intrapleural injection, or saline were washed and the cells counted in the same way to estimate baseline or saline-induced pleural leukocyte counts respectively. […]
The following compounds were tested for their inhibitory effects on dextran-induced leukocyte infiltration: Examples 3, 8, 9, 10, 12, 16, 37, 62, 66, 67, 99, 100, 111, 113, 115, 127, 131, 141, 184, 185, 192, PBS (saline) was administered iv. as a control. Inhibition of eosinophil infiltration, which was suppressed by anti-alpha-4 Mab (PS/2, 50%), was used as a readout of VLA-4 antagonist activity of the compounds tested. […]

T2 sequence (P13612 34-1032): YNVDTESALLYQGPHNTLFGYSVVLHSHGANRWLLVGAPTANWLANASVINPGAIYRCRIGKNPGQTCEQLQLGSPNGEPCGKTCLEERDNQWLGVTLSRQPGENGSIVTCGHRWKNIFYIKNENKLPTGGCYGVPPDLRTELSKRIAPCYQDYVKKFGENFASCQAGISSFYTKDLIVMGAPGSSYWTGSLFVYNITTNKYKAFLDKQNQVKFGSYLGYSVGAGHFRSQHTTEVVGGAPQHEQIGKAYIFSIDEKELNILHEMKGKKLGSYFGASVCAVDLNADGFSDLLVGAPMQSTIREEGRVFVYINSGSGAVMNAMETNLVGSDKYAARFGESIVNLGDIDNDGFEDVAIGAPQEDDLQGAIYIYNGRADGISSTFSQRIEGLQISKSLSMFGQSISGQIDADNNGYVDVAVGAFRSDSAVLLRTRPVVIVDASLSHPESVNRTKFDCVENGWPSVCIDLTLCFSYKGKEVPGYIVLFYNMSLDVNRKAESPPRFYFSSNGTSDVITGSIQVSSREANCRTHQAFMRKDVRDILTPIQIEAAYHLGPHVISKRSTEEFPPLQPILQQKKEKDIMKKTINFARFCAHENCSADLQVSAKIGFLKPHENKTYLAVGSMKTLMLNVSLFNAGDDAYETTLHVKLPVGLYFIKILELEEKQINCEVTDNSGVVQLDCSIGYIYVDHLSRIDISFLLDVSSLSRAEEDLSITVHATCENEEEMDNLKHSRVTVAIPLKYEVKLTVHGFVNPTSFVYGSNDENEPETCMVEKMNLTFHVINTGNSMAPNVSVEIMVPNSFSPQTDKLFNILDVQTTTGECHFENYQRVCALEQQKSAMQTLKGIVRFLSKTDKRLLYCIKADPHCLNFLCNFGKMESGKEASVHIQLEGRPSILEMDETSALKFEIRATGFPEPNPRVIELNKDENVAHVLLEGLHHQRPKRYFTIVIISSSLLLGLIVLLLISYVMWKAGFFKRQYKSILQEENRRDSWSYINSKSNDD
T2 sequence (P05556 21-798): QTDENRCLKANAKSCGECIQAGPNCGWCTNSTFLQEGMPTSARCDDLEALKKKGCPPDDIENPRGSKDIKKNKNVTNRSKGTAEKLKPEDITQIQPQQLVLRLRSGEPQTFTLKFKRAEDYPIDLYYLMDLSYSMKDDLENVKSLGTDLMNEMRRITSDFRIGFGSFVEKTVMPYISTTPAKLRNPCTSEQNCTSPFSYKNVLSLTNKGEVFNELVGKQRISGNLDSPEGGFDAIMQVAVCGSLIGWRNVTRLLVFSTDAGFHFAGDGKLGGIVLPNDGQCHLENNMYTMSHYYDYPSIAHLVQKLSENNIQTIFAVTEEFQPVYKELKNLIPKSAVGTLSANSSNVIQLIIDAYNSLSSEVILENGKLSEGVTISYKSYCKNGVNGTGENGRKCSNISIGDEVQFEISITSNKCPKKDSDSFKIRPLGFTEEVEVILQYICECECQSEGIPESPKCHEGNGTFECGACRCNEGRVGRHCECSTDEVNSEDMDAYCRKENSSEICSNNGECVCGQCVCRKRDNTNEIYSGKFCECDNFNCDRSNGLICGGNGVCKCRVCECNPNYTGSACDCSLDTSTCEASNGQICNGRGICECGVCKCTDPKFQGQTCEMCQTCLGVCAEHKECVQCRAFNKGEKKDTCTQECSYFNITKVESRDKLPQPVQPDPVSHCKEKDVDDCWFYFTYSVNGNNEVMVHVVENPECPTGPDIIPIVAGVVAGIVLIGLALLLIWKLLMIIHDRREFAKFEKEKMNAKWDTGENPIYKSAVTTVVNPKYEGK
T1 sequence (P13612 34-1032): as the sequence (P13612 34-1032) above
T1 sequence (P05556 21-798): as the sequence (P05556 21-798) above

Compound | IC50 [1] | melting point | IC50 [2] | % Inhibition of Eosinophil infiltration (Eos) [3]
COC(=O)[C@H](Cc1ccc(NC(=O)c2c(Cl)cccc2Cl)cc1)NC(=O)[C@H]1CSCN1C(=O)N1CCOCC1 [Example 56, 4-[(2,6-Dichlorobenzoyl)amino]-N-[[(4S)-3-(4-morpholinylcarbonyl)-4-thiazolidinyl]carbonyl]-L-phenylalanine Methyl Ester] | ≥ 1000 nM | 223 to 225 °C | 50 to 750 nM | –
COC(=O)[C@H](Cc1ccc(OCc2c(Cl)cccc2Cl)cc1)NC(=O)[C@H]1CSCN1C(=O)OC1CCOC1 (relative stereo) [Example 156, [S-(R*,R*)]-4-[[[1-[[4-[(2,6-Dichlorophenyl)methoxy]phenyl]methyl]-2-methoxy-2-oxoethyl]amino]carbonyl]-3-thiazolidinecarboxylic Acid 3-(3-Tetrahydrofuranyl)ester] | ≥ 1000 nM | 125 to 126.5 °C | 50 to 750 nM | –
COC(=O)[C@H](Cc1ccc(OCc2c(Cl)cccc2Cl)cc1)NC(=O)[C@H]1CSCN1C(=O)OCc1ccccn1 (relative stereo) [Example 38, [S-(R*,R*)]-4-[[[1-[4-[(2,6-Dichlorophenyl)methoxy]phenyl]methyl]-2-methoxy-2-oxoethyl]amino]carbonyl]-3-thiazolidinecarboxylic Acid 3-[(2-Pyridinyl)methyl]ester] | ≥ 1000 nM | 123 to 125 °C | ≥ 750 nM | –
COC(=O)[C@H](Cc1ccc(OCc2c(Cl)cccc2Cl)cc1)NC(=O)[C@H]1CSCN1C(=O)OCCN1CCCC1 (relative stereo) [Example 39, [S-(R*,R*)]-4-[[[1-[4-[(2,6-Dichlorophenyl)methoxy]phenyl]methyl]-2-methoxy-2-oxoethyl]amino]carbonyl]-3-thiazolidinecarboxylic Acid 3-[2-(1-Pyrrolidinyl)ethyl]ester] | ≤ 250 nM | 130 to 132 °C | 50 to 750 nM | –
[2R-[1(S*),2α,4β(S*)]]-4-[[[1-Carboxy-2-[4-[(2,6-dichlorobenzoyl)amino]phenyl]ethyl]-amino]carbonyl]-1-(1-phenylethyl)-2-azetidincearboxylic Acid, Dilithium Salt [Example 131] | 250 to 1000 nM | – | 50 to 750 nM | C (C<19)
CCOC(=O)N1CSC[C@@H]1C(=O)N[C@@H](Cc1ccc(NC(=O)c2c(Cl)cccc2Cl)cc1)C(=O)O (relative stereo) [Example 12, [S-(R*,R*)]-4-[[[1-Carboxy-2-[4-[(2,6-dichlorobenzoyl)amino]phenyl]ethyl]amino]carbonyl]-3-thiazolidinecarboxylic Acid 3-Ethyl Ester] | ≤ 250 nM | 118 to 121 °C | ≤ 50 nM | –
COC(=O)[C@H](Cc1ccc(OCc2c(Cl)cccc2Cl)cc1)NC(=O)[C@H]1CSCN1C(=O)OCCN1CCOCC1 (relative stereo) [Example 36, [S-(R*,R*)]-4-[[[1-[4-[(2,6-Dichlorophenyl)methoxy]phenyl]methyl]-2-methoxy-2-oxoethyl]amino]carbonyl]-3-thiazolidinecarboxylic Acid 3-[2-(4-Morpholinyl)ethyl]ester] | ≤ 250 nM | 138 to 140 °C | ≤ 50 nM | –
CS(=O)(=O)N1CSC[C@@H]1C(=O)N[C@@H](Cc1ccc(OCc2c(Cl)cccc2Cl)cc1)C(N)=O [Example 159] | ≥ 1000 nM | 228 to 230 °C | ≥ 750 nM | –
COC(=O)[C@H](Cc1ccc(NC(=O)c2c(Cl)cccc2Cl)cc1)NC(=O)[C@@H]1CCN1 [Example 158, [2S-(R*,R*)]-2-[[[1-[[4-[(2,6-Dichlorobenzoyl)amino]phenyl]methyl]-2-methoxy-2-oxoethyl]amino]carbonyl]azetidine] | ≥ 1000 nM | 113 to 115 °C | ≥ 750 nM | –
COC(=O)[C@H](Cc1ccc(NC(=O)c2c(Cl)cccc2Cl)cc1)NC(=O)[C@@H]1CCN1C(=O)OC(C)(C)C [Example 142, [2S-(R*,R*)]-2-[[[1-[4-[(2,6-Dichlorobenzoyl)amino]phenylmethyl]-2-methoxy-2-oxoethyl]amino]carbonyl]-1-azetidinecarboxylic Acid 1-(1,1-Dimethyl)ethyl Ester] | ≥ 1000 nM | 106 to 108 °C | ≥ 750 nM | –
COC(=O)[C@H](Cc1ccc(NC(=O)c2c(Cl)cccc2Cl)cc1)NC(=O)[C@H]1CSCN1C(=O)N(C)CCc1ccccn1 [Example 54, 4-[(2,6-Dichlorobenzoyl)amino]-N-[[(4S)-3-[[methyl[2-(2-pyridinyl)ethyl]amino]carbonyl]-4-thiazoidinyl]carbonyl]-L-phenylalanine Methyl Ester] | ≥ 1000 nM | 80 to 90 °C (dec.) | 50 to 750 nM | –
